Measurements taken from patent US20210137961A1, “Compositions and Methods for Treating Dry Eye Diseases” (priority 2017, published 2021).
Values after ≈ are worked out from the molar mass of the structure shown.

Key:
TNFα = assay: LPS-induced TNFα production in PMA-differentiated U937 cells (ELISA); type: cell-based, human; conditions: for inhibition of TNFα production (in words): solithromycin and telithromycin at 100 μM, clarithromycin at 333 μM
Protocol: (§1) EXAMPLE. […] Cells. The human monocytic cell line U937 was obtained from the American Type Culture Collection (ATCC, Rockville, Md.). PBMCs from COPD patients were obtained from Brompton hospital and separated by AccuSPIN (Sigma-Aldrich). […] U937 cells were differentiated into adherent macrophage-like morphology by exposure to PMA (50 ng/ml) for 48 h in complete growth medium. Cell viability was assessed microscopically by trypan blue staining. Cell toxicity was determined by MTT assay as needed. This study was approved by the ethics committee of the Royal Brompton Hospitals, and all subjects gave written informed consent. Cytokine ELISA. TNFα and IL-8 concentrations in the supernatant of cell cultures were determined by sandwich ELISA according to the manufacturer's instructions (R&D Systems Europe, Abingdon, UK). Statistical analysis. The results were expressed as the mean±SEM. Comparisons of data in two groups were performed using the Student's t test or the Wilcoxon signed rank test. Multiple comparisons were made by one-way ANOVA with post hoc test (Dunnett's) as appropriate. The difference was considered significant at p<0.05. […] Anti-inflammatory effects of solithromycin in U937 cells.

CXCL8 = assay: LPS-induced CXCL8 (IL-8) production in PMA-differentiated U937 cells (ELISA); type: cell-based, human; conditions: for inhibition of CXCL8 (IL-8) production (in words): solithromycin and telithromycin at 100 μM, clarithromycin at 333 μM
Protocol: as §1

[1] = system: Immortalized human meibomian gland epithelial cells (HMGECs); assay: HMGEC lysosome and neutral lipid accumulation, differentiation and proliferation; type: cell-based; conditions: meibomian gland epithelial cells
Protocol: EXAMPLE. Immortalized human meibomian gland epithelial cells (HMGECs) are cultured in the presence of vehicle or test compound, such as Soli (2, 10, or 20 μg/ml) for 1 to 7 days under proliferating (keratinocyte serum-free medium; KSFM) or differentiating (DMEM/F12 plus 10% fetal bovine serum) conditions. A positive control (epidermal growth factor and bovine pituitary extract for proliferation; Azi for differentiation) and a negative control (media only) are included with the experiments. Additional details are described in JAMA Ophthalmol 132(2): 226-228 (Feb. 1, 2014) and Current Eye Research, 1-6 (2017), each of which is incorporated herein by reference.
HMGECs are evaluated for cell number, neutral lipid content (LipidTox) and lysosome accumulation (LysoTracker). […] Strong lysosomal effects are observed with the 10 μg/ml dose of Soli (relative stimulation=30), on the first day of dosing, and those effects are statistically different (p<0.01) from the control group (relative stimulation=13). In contrast, the 10 μg/m1Azi dose is not statistically different from the control group (relative stimulation=18) until day 3. […] Compounds described herein, such a Soli, affect lysosome and lipid accumulation and differentiation of HMGECs. The effect of Soli on lysosome appearance is faster than that of Azi.

[2] = system: Haemophilus parainfluenzae; assay: MIC against Haemophilus parainfluenzae; type: cell-based; conditions: N 11
phospholipase = assay: Phospholipase inhibition in other cell lines; type: cell-based; conditions: for IC50: read-out: IC50 for phospholipase inhibition, other cell lines
MMP9 = MMP9 activity in PMA-stimulated U937 cells (gelatin zymography); type: cell-based, human; conditions: PMA stimulation
Protocol: EXAMPLE. […] Cells. The human monocytic cell line U937 was obtained from the American Type Culture Collection (ATCC, Rockville, Md.). PBMCs from COPD patients were obtained from Brompton hospital and separated by AccuSPIN (Sigma-Aldrich). […] U937 cells were differentiated into adherent macrophage-like morphology by exposure to PMA (50 ng/ml) for 48 h in complete growth medium. Cell viability was assessed microscopically by trypan blue staining. Cell toxicity was determined by MTT assay as needed. This study was approved by the ethics committee of the Royal Brompton Hospitals, and all subjects gave written informed consent. Zymography. MMP9 enzyme activity was measured by gelatin zymography. […] After electrophoresis, gels were incubated and rinsed with Novex® zymogram renaturing buffer (Invitrogen) for 30 min at room temperature. The gels were then rinsed in Novex® zymogram developing buffer (Invitrogen) for 30 min at room temperature prior to overnight incubation in the developing buffer at 37° C. After incubation, the gels were stained using a Colloidal Blue Staining Kit (Invitrogen) to visualize the zymogen bands. Statistical analysis. The results were expressed as the mean±SEM. Comparisons of data in two groups were performed using the Student's t test or the Wilcoxon signed rank test. Multiple comparisons were made by one-way ANOVA with post hoc test (Dunnett's) as appropriate. The difference was considered significant at p<0.05.

Mycoplasma hominis = assay: MIC against Mycoplasma hominis; type: cell-based; conditions: N 13
P. acnes = assay: MIC against P. acnes; type: cell-based; conditions: for MIC50 / MIC90: Cutibacterium acnes

CC[C@H]1OC(=O)[C@H](C)C(=O)[C@H](C)[C@@H](O[C@@H]2O[C@H](C)C[C@H](N(C)C)[C@H]2O)[C@](C)(OC)C[C@@H](C)C(=O)[C@H](C)[C@H]2N(CCCCn3cnc(-c4cccnc4)c3)C(=O)O[C@]12C [Telithromycin]
inhibition of TNFα production (in words) (TNFα): did not inhibit | inhibition of CXCL8 (IL-8) production (in words) (CXCL8): did not inhibit | meibomian gland differentiation (in words) [1]: do not cause clinically significant meibomian gland differentiation

CC[C@H]1OC(=O)[C@H](C)[C@@H](O[C@H]2C[C@@](C)(OC)[C@@H](O)[C@H](C)O2)[C@H](C)[C@@H](O[C@@H]2O[C@H](C)C[C@H](N(C)C)[C@H]2O)[C@](C)(O)C[C@@H](C)CN(C)[C@H](C)[C@@H](O)[C@]1(C)O [Azithromycin, azithromycin]
MIC Range [2]: 0.5-2^ μg/mL | inhibition of TNFα production (in words) (TNFα): did not inhibit | reversibility of phospholipase inhibition (phospholipase; after dosing is stopped): remains unchanged for several days after dosing is stopped | IC50 (phospholipase): 300 µM | inhibitory effects on MMP9 activity, lower than solithromycin (MMP9): 10 fold | inhibition of CXCL8 (IL-8) production (in words) (CXCL8): did not inhibit | MIC Range (Mycoplasma hominis): 0.5-4^ μg/mL

CC[C@H]1OC(=O)[C@H](C)[C@@H](O[C@H]2C[C@@](C)(OC)[C@@H](O)[C@H](C)O2)[C@H](C)[C@@H](O[C@@H]2O[C@H](C)C[C@H](N(C)C)[C@H]2O)[C@](C)(OC)C[C@@H](C)C(=O)[C@H](C)[C@@H](O)[C@]1(C)O [Clarithromycin, clarithromycin]
IC50 (TNFα; Homo sapiens, U-937, LPS, PMA-differentiated U937 cells, read-out: IC50 on TNFα release): 426 ± 63.9 µM | inhibition of TNFα production (in words) (TNFα): modest effects | inhibitory effects on MMP9 activity, lower than solithromycin (MMP9): 10 fold | IC50 (CXCL8; Homo sapiens, U-937, LPS, PMA-differentiated U937 cells, read-out: IC50 on CXCL8 release): 506 ± 44 µM | inhibition of CXCL8 (IL-8) production (in words) (CXCL8): modest effects | meibomian gland differentiation (in words) [1]: do not cause clinically significant meibomian gland differentiation

CC[C@H]1OC(=O)[C@H](C)C(=O)[C@H](C)[C@@H](O[C@@H]2O[C@H](C)C[C@H](N(C)C)[C@H]2O)[C@](C)(OC/C=C/c2cnc3ccccc3c2)C[C@@H](C)C(=O)[C@H](C)[C@H]2NC(=O)O[C@@]21C [cethromycin]
meibomian gland differentiation (in words) [1]: do not cause clinically significant meibomian gland differentiation

CC[C@H]1OC(=O)[C@H](C)[C@@H](O[C@H]2C[C@@](C)(OC)[C@@H](O)[C@H](C)O2)[C@H](C)[C@@H](O[C@@H]2O[C@H](C)C[C@H](N(C)C)[C@H]2O)[C@](C)(O)C[C@@H](C)C(=O)[C@H](C)[C@@H](O)[C@]1(C)O [Erythromycin]
inhibition of TNFα production (in words) (TNFα): did not inhibit | IC50 (phospholipase): > 400 µM | effect on MMP9 activity (in words) (MMP9): no effect | inhibition of CXCL8 (IL-8) production (in words) (CXCL8): did not inhibit | meibomian gland differentiation (in words) [1]: do not cause clinically significant meibomian gland differentiation

CN[C@H](CC(C)C)C(=O)N[C@H]1C(=O)N[C@@H](CC(N)=O)C(=O)N[C@H]2C(=O)N[C@H]3C(=O)N[C@H](C(=O)N[C@H](C(=O)O)c4cc(O)cc(O)c4-c4cc3ccc4O)[C@H](O)c3ccc(c(Cl)c3)Oc3cc2cc(c3O[C@@H]2O[C@H](CO)[C@@H](O)[C@H](O)[C@H]2O[C@H]2C[C@](C)(N)[C@H](O)[C@H](C)O2)Oc2ccc(cc2Cl)[C@H]1O [Vancomycin]
MIC50 (P. acnes; P. acnes): 1 µg/mL (≈ 0.69 µM) | MIC90 (P. acnes; P. acnes (51 species)): 1 µg/mL (≈ 0.69 µM) | MIC Range (P. acnes; P. acnes (51 species)): 0.12 to 1 µg/mL

CCCCCCCCCC(=O)N[C@@H](Cc1c[nH]c2ccccc12)C(=O)N[C@H](CC(N)=O)C(=O)N[C@@H](CC(=O)O)C(=O)N[C@@H]1C(=O)NCC(=O)N[C@@H](CCCN)C(=O)N[C@@H](CC(=O)O)C(=O)N[C@H](C)C(=O)N[C@@H](CC(=O)O)C(=O)NCC(=O)N[C@H](CO)C(=O)N[C@@H]([C@H](C)CC(=O)O)C(=O)N[C@@H](CC(=O)c2ccccc2N)C(=O)O[C@@H]1C [Daptomycin]
MIC50 (P. acnes; P. acnes): 2 µg/mL (≈ 1.23 µM) | MIC90 (P. acnes; P. acnes (51 species)): 4 µg/mL (≈ 2.47 µM) | MIC Range (P. acnes; P. acnes (51 species)): 0.5 to 8 µg/mL

Penicillin
MIC 50% (P. acnes; P. acnes): ≤0.03 µg/mL | MIC 90% (P. acnes; P. acnes (51 species)): 0.06 µg/mL | MIC Range (P. acnes; P. acnes (51 species)): ≤0.03-1^ μg/ml
